The values that follow come from patent publication US10907219B2, “Compositions and methods for controlling cellular function” (STC.UNM, priority 2014, dated 2021).

The subject of series [1] is HEK 293T eGFP reporter cells (VP-PYL and GAL4DBD-ABI). In words: H2O2-induced eGFP expression (transcriptional activation). It is filed as cell-based. An excerpt: To determine if the ABA generated from the H2O2-induced cleavage of ABA-HP is biologically active, we tested whether it could induce downstream biological processes. We first investigated H2O2-induced transcriptional activation using an HEK 293T stable cell line, in which enhanced GFP (eGFP) expression occurs only in the presence of functional ABA. The cell line was created with both the ABA-responsive split transcriptional activator DNA fragment (VP-PYL and GAL4DBD-ABI linked by IRES; Liang et al., 2011, Sci. Signal. 4, rs2) and an inducible eGFP DNA fragment (with 5×UAS) inserted into the genome (FIG. 2a).
We tested the response of our system to H2O2 at physiologically relevant concentrations under cell culture conditions. The eGFP reporter cells were treated with no drug, or 10 μM of ABA, ABA-HP, or ABA-HP exposed to H2O2 (1, 5 or 10 eq) for five to 24 hours. The expression of eGFP was monitored at specific time points using a fluorescence microscope. […] Alternatively, for cellular experiments, cell culture media can be exchanged regularly with media containing fresh ABA-HP and thus restrict the build-up of esterase-cleaved ABA.
EGFP expression experiments: HEK 293T (GFP) cells were seeded 24 hours prior to treatment in 24-well plates at 100 K/well. 10 μM ABA-HP was added to the cells 10 minutes prior to the addition of 10 μM ABA and 10, 50, or 100 μM of H2O2. Images were taken for living cells at 5 hours, 7 hours, 10 hours and 24 hours.
An Axio Observer D1 fluorescent microscope (Carl Zeiss AG, Oberkochen, Germany) outfitted with HBO 100 microscopy illumination system (Carl Zeiss AG, Oberkochen, Germany; GFP: excitation 470/40 and emission 525/50) was used to analyze GFP expression and NES localization. A 20× objective was used to analyze GFP expression. A 63× objective was used for NES localization.

The subject of series [2] is myr-ABI and PYL-eGFP-Tiam1 in CHO cells. In words: H2O2-induced ruffle formation (Tiam1 membrane localization). Format: cell-based. From the text:
To further investigate whether a complex biological process can be triggered by H2O2-induced protein dimerization, we examined the membrane ruffle formation resulting from localized Rho GTPase activation. Tiam1 is a guanine exchange factor for Rac, a member of Rho GTPase. The membrane translocation of Tiam1 activated Rac signaling pathway and induced ruffle formation, which is involved in cell migration and morphogenesis. We constructed an ABA-inducible Tiam1 membrane localization system, which consists of DNA plasmids encoding the membrane-localized ABI (myr-ABI; Liang et al., 2011, Sci. Signal. 4, rs2) and the cytoplasmic eGFP/PYL-fused Tiam1 (PYL-eGFP-Tiam1) (FIG. 2a). CHO cells were transfected with these plasmids for 24 hours and then incubated for one hour without additive, or with 10 μM of ABA, ABA-HP or ABA-HP plus 10 eq of H2O2. The ruffle formation in cells was analyzed by the confocal microscopy.
Ruffle generation experiment: CHO were seeded in 24-well plates at 50 K/well with coverslip for 24 hours. 0.1 μg PYL-eGFP-Tiam1 and 0.1 μg myr-ABI (FIG. 2a, iii) of DNA plasmid were used for each well, with 30 μL of Opti-MEM (Life Technologies, Carlsbad, Calif.) and 1.8 μL PEI. After incubation at room temperature for 15 min, the mixture was added to the cells and cultured for 24 hours. […]

Series [3] is described as follows: Chemical stability of caged ABA in HEPES buffer/DMSO in the dark (HPLC). Format: physicochemical. Particulars: 70% HEPES buffer/30% DMSO, 37° C., 24 h. As to the method:
FIG. 26. Chemical stability of ABA-DMNB. ABA-DMNB was incubated in 70% HEPES buffer/30% DMSO at 37° C. for 24 h in the dark. The samples were analyzed by HPLC.
FIG. 32. Chemical stability of ABA-DEACM. ABA-DEACM was incubated in 70% HEPES buffer/30% DMSO at 37° C. for 24 h in the dark. The samples were analyzed by HPLC and absorbance was monitored at 250 nm.
HPLC analysis: Reversed-phase HPLC was performed on an ACCLAIM 120 (4.6×100 mm) C18 column (Thermo Fisher Scientific, Waltham, Mass.) with an ULTIMATE 3000 pump system, including a Variable Wavelength Detector 3100, Degasser 1210, and Autosampler SPS 3000 (Thermo Fisher Scientific, Waltham, Mass.). A mixture of water and acetonitrile containing 0.1% TFA was used as the eluent. Absorbance at 250 nm was used to monitor the elution of the molecules. The method used an increase in acetonitrile from 5% to 95% over 15 minutes to elute the molecules at a flow rate of 0.7 mL/min. The peaks for the molecules were integrated by using Chromeleon software (Thermo Fisher Scientific, Waltham, Mass.). The molar absorptivity of both free and caged ABA at 250 nm were measured, which was used to calculate the concentration of each species from the intensity of absorbance at 250 nm. […]

“Also recorded” adds a separate entry of the source.

`CC1=CC(=O)CC(C)(C)C1(O)/C=C/C(C)=C\C(=O)O` (stereo not shown) [ABA, abscisic acid, reference compound]: in series [1] (10 μM, compound alone, after five hours), the eGFP expression result is given as “eGFP expression could be observed after five hours”. For the same compound, in series [2] (10 μM, compound alone, CHO cells), the ruffle formation result was “showed obvious ruffle formation”.

For the compound `CCN(CC)c1ccc2c(COC(=O)/C=C(C)\C=C\[C@@]3(O)C(C)=CC(=O)CC3(C)C)cc(=O)oc2c1` [ABA-DEACM], the “chemical stability in biological buffer in the dark” value in series [3] was “no chemical decomposition; also recorded: stable chemically”.

Consider `COc1cc(COC(=O)/C=C(C)\C=C\[C@@]2(O)C(C)=CC(=O)CC2(C)C)c([N+](=O)[O-])cc1OC` [ABA-DMNB], for which, in series [3], the “chemical stability in biological buffer in the dark” value was “no chemical decomposition; also recorded: stable at 37 °C in biological buffer in the dark for 24 hours”.

`CC1=CC(=O)CC(C)(C)[C@@]1(O)/C=C/C(C)=C\C(=O)OCc1ccc(B2OC(C)(C)C(C)(C)O2)cc1` [ABA-HP]: the eGFP expression entry was “eGFP expression could be observed after five hours” in series [1] (10 μM plus H2O2 (1, 5 or 10 eq), after five hours); “eGFP expression was indeed observed” in series [1] (10 μM, compound alone, extended incubation 24 hours); “not observed within a 10-hour period” in series [1] (10 μM, compound alone, no H2O2, within 10 hours). Also, in series [1] (10 μM plus different amounts of H2O2), the “dependence of eGFP expression on H2O2 level” value is “dose-dependent eGFP expression”. In addition, in series [1] (10 μM, no H2O2, inferred from absent eGFP expression), the stability within cells entry was “at least 10 hours”. The ruffle formation entry in series [2] (10 μM plus 10 eq of H2O2, CHO cells) was “showed obvious ruffle formation”.
